In US20170119851A1, “METHODS OF TREATING ANOREXIA” (NOVARTIS AG, priority 2014, published 2017):
No end group written: not given here.

Columns and labels:
in vivo [1] = conditions: male, Sprague-Dawley, rat, plasma, iv, 10 nanomoles per rat
Protocol: C) In Vivo Assay Description:
10 nanomoles of conjugate was dissolved in 300 L of PBS (Phosphate buffered saline) to form Dosing solution. Dosing solution (300 M) was administered intravenously to male Sprague-Dawley rats via lateral tail vein (corresponding to a dose 10 nanomoles per rat). Blood was collected via tail snip at prescribed times after dosing and immediately placed on wet ice. These samples were centrifuged at 4 C, with supernatant plasma transferred to a fresh tube for analysis.
For assay, intermediates were diluted to a top standard concentration of 2500 pg/mL and then diluted 2-fold serially to 16 points including a zero dose standard in ELISA sample diluent with bovine serum albumin (BSA).
Plasma samples were diluted 10-fold and then 5-fold serially out to 31,250-fold in ELISA sample diluent with BSA.
Plates were aspirated and blocked with a milk-based blocker at 90 uL/well for 2 hours at RT. All further incubations were carried out at 30 uL/well. Plates were aspirated again and samples and standards were added to the wells for 2 hours at RT. […] The plates were washed again and a HRP-labeled streptavidin reagent was added to the wells for 30 minutes at RT. Plates were washed a final time and a chemiluminescent substrate was added to all wells and plates were read immediately on a Spectramx M5 for light output.
Raw data was organized and analyzed for basic PK parameters.

MC4R [2] = target: T1, MC4R (Homo sapiens, UniProt P32245); test: HTRF cAMP assay, HEK293/MC4R stable cell line; type: cell-based; conditions: HEK293/MC4R cells, titration against NDP-aMSH
T1 construct: expressed in transfected cells; host or cells: HEK293
Protocol: A) HTRF cAMP Assay Protocol:
• Flash spindown the 384 well plate at 1200 RPM • Incubated the cells for 15 minutes at an ambient temperature • Add 10 μL of the following reagents into each well based on your sample alignment
• Flash spindown the 384 well plate at 1200 RPM • Incubate the cells for an additional 30 minutes at an ambient temperature • *This incubation time is not so strict. +/−5 min should be OK according to assay development data. • Add 10 μL of cAMP-d2 (diluted 1:4 in the lysis buffer provided in the kit) • *Important!! For Negative control, not cAMP-d2, but just the lysis buffer • Add 10 μL of anti-cAMP Cryptate (diluted 1:4 in the lysis buffer provided in the kit) • Flash spindown at 1200 RPM. • Incubate the assay plate for 45-60 min at an ambient temperature. • Transfer […] of each sample to a tissue culture treated white polystyrene 384-well assay plate (Corning, Cat. No. 3572) • Flash spindown at 1200 RPM. • Measure the fluorescence with a Molecular device M5 or M5e with the following setting.

MC3R [3] = target: T2, MC3R (Homo sapiens, UniProt P41968); test: MC3 cAMP assay, HEK293/MC3R stable cell line (antagonist protocol); type: cell-based; conditions: HEK293/MC3R cells, antagonist protocol against NDP-α-MSH EC80
T2 construct: expressed in transfected cells; host or cells: HEK293
Protocol: Cells: HEK293/MC3R stable cell line Complete medium: DMEM/F12 1:1 (Gibco, Cat. No. 11039) • 10% FBS (Heat inactivated, Gibco, Cat. No. 10082)× • 200 μg/mL Geneticin (Gibco, Cat. No. 10131) • 2 mM L-glutamine (GIBCO, Cat No. 25030) Flask: 150 cm^2 tissue culture treated flask (Corning, Cat. No. 430825).
• I. Aspirate conditioned medium • II. Wash with 2.5 mL of DPBS (Gibco, Cat. No. 14190) • III. Add 2 mL of 0.25% Trypsin-EDTA (Gibco, Cat. No. 25200-056) • IV. Leave the flask for few minutes in incubator, tap the flask a few time to detach cells. • V. Add 10 mL of the complete medium to stop Trypsin-EDTA treatment and mix it well by pipetting softly a few times to re-suspend clumping cells • VI. Transfer 1.5 ml of cells into a new 150 cm flask containing 20 ml of complete media • VII. Transfer the remaining suspension into a 50 mL centrifuge tube • VIII. Spin down at 1200 rpm for 4 mins. Aspirate supernatant • IX. Add 6 mL of the assay buffer to the tube and re-suspend the cells by softly pipetting • X. Transfer 0.5 mL of the suspension into a sample vial for Vi-cell and add another 0.5 ml of PBS. • XI. Count cell number by using a Vi-cell *Record cell density and viability every time • i. Plate cells at 4K/well in 10 ul/well of assay buffer containing IBMX. • ii. Leave the plate in incubator for ˜30 mins before assay is started on suspension cells. […]

MC3R [4] = target: T2, MC3R; conditions: Jackson et al., Biochemistry 41, 7565-7572; cited from earlier work
MC3R and MC4R = conditions: Jackson et al., Biochemistry 41, 7565-7572; cited from earlier work
MC4R [5] = target: T1, MC4R; conditions: Jackson et al., Biochemistry 41, 7565-7572; cited from earlier work
C57BL mice [6] = test: Food intake after intranasal (IN) AgRP in mice; type: in vivo; conditions: 57 μg AgRP in saline
Protocol: One day prior to treatment, 4-h food intake was measured and animals grouped to match group means of food intake. On the day of the study, food was removed at 9:00 am. […] After dosing, the mice remained in the isoflurane chamber in a supine position for 3 min before being returned to their cages. A pre-weighed amount of food was given to the animals before the dark cycle. Food weight was recorded at 4 and 24 hours post dose.
All data were analyzed using an unpaired t-test comparing saline and AgRP in saline. A p value of <0.05 or lower was taken to be statistically significant. All data were analyzed and plotted using GraphPad Prism6 software (San Diego, Calif.).

[7] = tested on: lean Sprague Dawley (SD) rats; test: Food intake after intranasal AgRP in lean rats; type: in vivo
Protocol: The purpose of the following study was to determine if intranasal—(IN) administered AgRP would stimulate food intake in lean Sprague Dawley (SD) rats.
8-12 week-old male SD rats were housed one per cage with a standard chow diet and normal light cycle.
One and two days prior to dosing, 24 h food intake and body weight were measured. Animals were grouped based on body weight and food intake. […] Animals were actively sniffing when compound was administered. After dosing, rats were returned to their home cages. A pre-weighed amount of food was given to the animals after dosing. Food weight was recorded at 4 and 24 hours post dose.
All data were analyzed using an unpaired t-test comparing saline and AgRP. A p value of <0.05 or lower was taken to be statistically significant. All data were analyzed and plotted using GraphPad Prism6 software (San Diego, Calif.).

C57BL mice [8] = test: Food intake after subcutaneous (SC) AgRP in mice; type: in vivo; conditions: 57 μg AgRP
Protocol: One day prior to treatment, 4-h food intake was measured and animals grouped to match group means of food intake. On the day of the study, animals were dosed via SC injection between 10:30 to 11:00 am. Pre-weighed food was provided to the mice prior to the dark cycle (11:00 am). At 4 and 24 h post dose food intake was measured.
All data were analyzed using an unpaired t-test comparing PBS and AgRP in saline. A p value of <0.05 or lower was taken to be statistically significant. All data were analyzed and plotted using GraphPad Prism6 software (San Diego, Calif.).

in vivo [9] = conditions: male, C57BL, mouse, plasma, 57 ug
Protocol: Male C57BL mice were housed one per cage with normal chow diet and housed in normal light cycle (light on 6:00-18:00).
10 min prior to the treatment, tail blood samples were taken and plasma (10 μl) was obtained. […] After being dosed, the mice remained in the isoflurane chamber for 2 min before placed back in their home cages. […] Tail blood samples were taken at 2, 5, 10, 30 min and 1, 2, 4 and 24 h post dose. Plasma samples were aliquoted and stored at −80° C. until analysis.

T2 sequence (P41968 whole entry, species assumed): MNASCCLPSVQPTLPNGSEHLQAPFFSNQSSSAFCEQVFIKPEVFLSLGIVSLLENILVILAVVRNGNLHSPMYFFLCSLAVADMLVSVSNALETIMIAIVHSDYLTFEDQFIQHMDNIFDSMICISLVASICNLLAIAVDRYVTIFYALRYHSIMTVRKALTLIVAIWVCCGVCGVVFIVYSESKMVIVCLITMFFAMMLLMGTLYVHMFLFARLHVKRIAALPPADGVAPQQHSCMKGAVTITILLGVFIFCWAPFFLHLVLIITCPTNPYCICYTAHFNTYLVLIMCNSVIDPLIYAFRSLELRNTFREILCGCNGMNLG
T1 sequence (P32245 whole entry, species assumed): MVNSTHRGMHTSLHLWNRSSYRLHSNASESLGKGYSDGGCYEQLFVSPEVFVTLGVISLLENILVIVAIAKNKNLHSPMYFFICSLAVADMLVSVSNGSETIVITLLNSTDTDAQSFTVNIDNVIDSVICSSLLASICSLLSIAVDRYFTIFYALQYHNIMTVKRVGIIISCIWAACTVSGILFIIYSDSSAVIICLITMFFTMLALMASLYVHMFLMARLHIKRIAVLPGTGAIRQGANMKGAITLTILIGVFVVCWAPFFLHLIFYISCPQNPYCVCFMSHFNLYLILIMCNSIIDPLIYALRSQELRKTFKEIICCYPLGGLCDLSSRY

Compound	half-life (in vivo [1]) [h]	EC50 (MC4R [2]) [nM]	EC50 (MC3R [3]) [nM]	MC3R affinity compared with AgRP(83-132) (MC3R [4])	inverse agonism compared with AgRP(83-132) (MC3R and MC4R)	MC4R affinity compared with AgRP(83-132) (MC4R [5])	further results
CCCCCCCCCCCC(CCCCCCCCCCC(=O)O)(C(=O)O)C(=O)NCCOCCOCCOCCOCCOCCOCCOCCOCCOCCOCCOCCOCCOCCOCCOCCOCCOCCOCCOCCOCCOCCOCCOCCOCCC(=O)NCCCC[C@@H]1NC(=O)[C@H](CCCNC(=N)N)NC(=O)[C@@H]2CSSC[C@@H]3NC(=O)[C@@H]4CCCN4C(=O)[C@H](C(C)C)NC(=O)[C@H](CCC(N)=O)NC(=O)[C@H](CCC(N)=O)NC(=O)CNC(=O)[C@H](CC(C)C)NC(=O)[C@@H]4CSSC[C@H](NC(=O)[C@H]([C@@H](C)O)NC(=O)[C@H](C)NC(=O)[C@H](CSSC[C@@H](C(=O)N[C@@H](CO)C(=O)N[C@@H](CCCNC(=N)N)C(=O)N[C@H](C(=O)O)[C@@H](C)O)NC(=O)[C@@H]5CCCN5C(=O)[C@H](CC(N)=O)NC(=O)[C@H](CCSC)NC(=O)[C@H](C)NC(=O)[C@H]([C@@H](C)O)NC(=O)CNC(=O)[C@H](CC(C)C)NC1=O)NC(=O)[C@@H]1CCCN1C(=O)[C@H](CC(=O)O)NC(=O)[C@H](CSSC[C@H](NC(=O)[C@H](CCCNC(=N)N)NC(=O)[C@H](CCCNC(=N)N)NC(=O)[C@H](CO)NC(=O)[C@H](CO)NC(=O)CCOCCOCCOCCOCCOCCOCCOCCOCCOCCOCCOCCOCCOCCOCCOCCOCCOCCOCCOCCOCCOCCOCCOCCOCCNC(=O)C(CCCCCCCCCCC)(CCCCCCCCCCC(=O)O)C(=O)O)C(=O)N[C@@H](C(C)C)C(=O)N[C@@H](CCCNC(=N)N)C(=O)N[C@@H](CC(C)C)C(=O)N[C@@H](Cc1c[nH]cn1)C(=O)N[C@@H](CCC(=O)O)C(=O)N[C@@H](CO)C(=O)N4)NC3=O)C(=O)N[C@@H](Cc1ccc(O)cc1)C(=O)N[C@H]1CSSC[C@H](NC(=O)[C@H](Cc3ccccc3)NC(=O)[C@H](C)NC(=O)[C@H](CC(N)=O)NC(=O)[C@H](Cc3ccccc3)NC(=O)[C@H](Cc3ccccc3)NC(=O)[C@H](CCCNC(=N)N)NC1=O)C(=O)N[C@@H](Cc1ccc(O)cc1)C(=O)N2 (some centres unmarked) [Example 5B]	52	167	65				
CCCCCCCCCCCC(CCCCCCCCCCC(=O)O)(C(=O)O)C(=O)NCCOCCOCCOCCOCCOCCOCCOCCOCCOCCOCCOCCOCCOCCOCCOCCOCCOCCOCCOCCOCCOCCOCCOCCOCCC(=O)N[C@@H](CO)C(=O)N[C@@H](CO)C(=O)N[C@@H](CCCNC(=N)N)C(=O)N[C@@H](CCCNC(=N)N)C(=O)N[C@H]1CSSC[C@@H]2NC(=O)[C@@H]3CSSC[C@@H]4NC(=O)[C@H](Cc5ccc(O)cc5)NC(=O)[C@@H]5CSSC[C@H](NC(=O)[C@H](Cc6ccc(O)cc6)NC(=O)[C@H](CSSC[C@H](NC(=O)[C@H](CO)NC(=O)[C@H](CCC(=O)O)NC(=O)[C@H](Cc6c[nH]cn6)NC(=O)[C@H](CC(C)C)NC(=O)[C@H](CCCNC(=N)N)NC(=O)[C@H](C(C)C)NC1=O)C(=O)N[C@@H](CC(C)C)C(=O)NCC(=O)N[C@@H](CCC(N)=O)C(=O)N[C@@H](CCC(N)=O)C(=O)N[C@@H](C(C)C)C(=O)N1CCC[C@H]1C(=O)N3)NC(=O)[C@H]([C@@H](C)O)NC(=O)[C@H](C)NC(=O)[C@H](CSSC[C@@H](C(=O)N[C@@H](CO)C(=O)N[C@@H](CCCNC(=N)N)C(=O)N[C@H](C(=O)O)[C@@H](C)O)NC(=O)[C@@H]1CCCN1C(=O)[C@H](CC(N)=O)NC(=O)[C@H](CCSC)NC(=O)[C@H](C)NC(=O)[C@H]([C@@H](C)O)NC(=O)CNC(=O)[C@H](CC(C)C)NC(=O)[C@H](CCCCN)NC(=O)[C@H](CCCNC(=N)N)NC4=O)NC(=O)[C@@H]1CCCN1C(=O)[C@H](CC(=O)O)NC2=O)C(=O)N[C@@H](CCCNC(=N)N)C(=O)N[C@@H](Cc1ccccc1)C(=O)N[C@@H](Cc1ccccc1)C(=O)N[C@@H](CC(N)=O)C(=O)N[C@@H](C)C(=O)N[C@@H](Cc1ccccc1)C(=O)N5 (some centres unmarked) [Example 5A]	20	18	7				
AgRP (87-120): shorter biologically active fragment of AgRP described in Jackson et al. (CVRLHESCLGQQVPCCDPCATCYCRFFNAFCYCR; also: disulfide pairing of this fragment not given here, 9 Cys (C105 partner C129 absent))				approximately the same	equivalent inverse agonism	approximately the same	
AgRP(87-132): shorter biologically active fragment of AgRP described in Jackson et al.				approximately the same	equivalent inverse agonism	approximately the same	
CSCC[C@@H]1NC(=O)[C@H](C)NC(=O)[C@H]([C@@H](C)O)NC(=O)CNC(=O)[C@H](CC(C)C)NC(=O)[C@H](CCCCN)NC(=O)[C@H](CCCNC(=N)N)NC(=O)[C@@H]2CSSC[C@@H]3NC(=O)[C@@H]4CCCN4C(=O)[C@H](C(C)C)NC(=O)[C@H](CCC(N)=O)NC(=O)[C@H](CCC(N)=O)NC(=O)CNC(=O)[C@H](CC(C)C)NC(=O)[C@@H]4CSSC[C@H](NC(=O)[C@H]([C@@H](C)O)NC(=O)[C@H](C)NC(=O)[C@H](CSSC[C@@H](C(=O)N[C@@H](CO)C(=O)N[C@@H](CCCNC(=N)N)C(=O)N[C@H](C(=O)O)[C@@H](C)O)NC(=O)[C@@H]5CCCN5C(=O)[C@H](CC(N)=O)NC1=O)NC(=O)[C@@H]1CCCN1C(=O)[C@H](CC(=O)O)NC(=O)[C@H](CSSC[C@H](NC(=O)[C@H](CCCNC(=N)N)NC(=O)[C@H](CCCNC(=N)N)NC(=O)[C@H](CO)NC(=O)[C@@H](N)CO)C(=O)N[C@@H](C(C)C)C(=O)N[C@@H](CCCNC(=N)N)C(=O)N[C@@H](CC(C)C)C(=O)N[C@@H](Cc1c[nH]cn1)C(=O)N[C@@H](CCC(=O)O)C(=O)N[C@@H](CO)C(=O)N4)NC3=O)C(=O)N[C@@H](Cc1ccc(O)cc1)C(=O)N[C@H]1CSSC[C@H](NC(=O)[C@H](Cc3ccccc3)NC(=O)[C@H](C)NC(=O)[C@H](CC(N)=O)NC(=O)[C@H](Cc3ccccc3)NC(=O)[C@H](Cc3ccccc3)NC(=O)[C@H](CCCNC(=N)N)NC1=O)C(=O)N[C@@H](Cc1ccc(O)cc1)C(=O)N2 [AgRP, Agouti-Related Peptide]							food intake vs saline (unpaired t-test) (C57BL mice [6]; 4 h post dose): significant effect; food intake vs saline (unpaired t-test) (C57BL mice [6]; 24 h post dose): significant effect; food intake vs saline (unpaired t-test) ([7]; 57 μg AgRP, 24 h post dose): significant increase; food intake vs saline (unpaired t-test) ([7]; 171 μg AgRP, 4 h post dose): significant effect; food intake vs saline (unpaired t-test) ([7]; 171 μg AgRP, 24 h post dose): significant increase; food intake vs PBS (unpaired t-test) (C57BL mice [8]; 4 h post dose): did not resulted in a significant effect; food intake vs PBS (unpaired t-test) (C57BL mice [8]; 24 h post dose): did not resulted in a significant effect; Cmax (in vivo [9]; other: intranasal (IN)): 97.6 ng/mL; Tmax (in vivo [9]; other: intranasal (IN)): 1 h; Cmax (in vivo [9]; sc): 2810 ng/mL; Tmax (in vivo [9]; sc): 0.5 h
